The nature of this data set: Drug release assay (hydrolysis rate test in pH 7.4 / pH 2.0 buffer, HPLC). In kind it is physicochemical. To be noted: for Hydrolysis constant Kh pH 2.0 / Hydrolysis constant Kh pH 7.4: Kh=-ln[100%-Release rate (%)]/t; for Release rate (%) pH 2.0 (6 h): pH 2.0 buffer solution; for Release rate (%) pH 2.0 (6 h) / Release rate (%) pH 7.4 (0.5 h) / Release rate (%) pH 7.4 (6 h): 37° C., 200 rpm, residual content relative to 0 h by HPLC; for Release rate (%) pH 7.4 (0.5 h) / Release rate (%) pH 7.4 (6 h): pH 7.4 buffer solution. As to the method: Preparation of pH2.0 Buffer Solution
Preparation of pH7.4 Buffer Solution
Method of Hydrolysis Rate Test
The compounds were dissolved in pH7.4/pH2.0 buffer solution, placed in a constant temperature shaker at 37° C. and 200 rpm, and sampled at 0 h, 0.5 h and 6 h respectively. The residual contents of the compounds relative to 0 h were tested at each time point.
The release rates (%) were calculated using the following equation: Release rate (%)=[A(0h)−A(xh)]/A(0h)×100%, (x=0, 0.5, 6), A(xh) is the peak area of compounds tested by HPLC at the indicated time point.
The hydrolysis constants (Kh) were calculated using the following equation: Hydrolysis constant Kh=−ln[100%−Release rate (%)]/t Results

`CCCCN(CCCC)c1ccc(N2CCC(CCOC(=O)OCn3cc(F)c(=O)[nH]c3=O)CC2)cc1` [Example 1, 2-(1-(4-(Dibutylamino)phenyl)piperidin-4-yl)ethyl ((5-fluoro-2,4-dioxo-3,4-dihydropyrimidin-1(2H)-yl)methyl) carbonate]: the “Hydrolysis constant Kh pH 2.0” value is <0.001, the “Release rate (%) pH 2.0 (6 h)” value is 0%, the “Hydrolysis constant Kh pH 7.4” value was determined as 0.111 and the “Release rate (%) pH 7.4 (0.5 h)” value is given as 5.4%. The “Release rate (%) pH 7.4 (6 h)” value was found to be 64%.
Consider `CCCN(CCC)c1ccc(-c2ccc(OC(=O)OCn3cc(F)c(=O)[nH]c3=O)cc2)cc1` [Example 2, 4′-(Dipropylamino)-[1,1′-biphenyl]-4-yl ((5-fluoro-2,4-dioxo-3,4-dihydropyrimidin-1(2H)-yl)methyl) carbonate], for which the “Hydrolysis constant Kh pH 2.0” value is listed as 0.080, the “Release rate (%) pH 2.0 (6 h)” value came to 38%, the “Hydrolysis constant Kh pH 7.4” value turned out to be 2.375 and the “Release rate (%) pH 7.4 (0.5 h)” value was determined as 69.5%. The “Release rate (%) pH 7.4 (6 h)” value is given as 89%.
Turning to `CCCCCN(CCCCC)c1ccc(OC(=O)OCn2cc(F)c(=O)[nH]c2=O)cc1` [Example 3, 4-(Dipentylamino)phenyl ((5-fluoro-2,4-dioxo-3,4-dihydropyrimidin-1(2H)-yl)methyl) carbonate], the “Hydrolysis constant Kh pH 2.0” value came to 0.153, the “Release rate (%) pH 2.0 (6 h)” value was found to be 60%, the “Hydrolysis constant Kh pH 7.4” value is 1.873 and the “Release rate (%) pH 7.4 (0.5 h)” value was 60.8%. The “Release rate (%) pH 7.4 (6 h)” value is given as 100%.
With `Cc1cc(C)cc(N2CCC(c3ccc(OC(=O)OCn4cc(F)c(=O)[nH]c4=O)cc3)CC2)c1` [Example 4, 4-(1-(3,5-Dimethylphenyl)piperidin-4-yl)phenyl ((5-fluoro-2,4-dioxo-3,4-dihydropyrimidin-1(2H)-yl)methyl) carbonate], the “Hydrolysis constant Kh pH 2.0” value was found to be 0.039, the “Release rate (%) pH 2.0 (6 h)” value was 21%, the “Hydrolysis constant Kh pH 7.4” value amounted to 3.509 and the “Release rate (%) pH 7.4 (0.5 h)” value is reported as 82.7%. The “Release rate (%) pH 7.4 (6 h)” value is recorded as 98%.
As to `CCCc1ccc(N2CCc3cc(OC(=O)OCn4cc(F)c(=O)[nH]c4=O)ccc3C2)cc1` [Example 5, (5-Fluoro-2,4-dioxo-3,4-dihydropyrimidin-1(2H)-yl)methyl (2-(4-propylphenyl)-1,2,3,4-tetrahydroisoquinolin-6-yl) carbonate], the “Hydrolysis constant Kh pH 2.0” value amounted to 0.137, the “Release rate (%) pH 2.0 (6 h)” value was 56%, the “Hydrolysis constant Kh pH 7.4” value came out at 5.838 and the “Release rate (%) pH 7.4 (0.5 h)” value is 94.6%. The “Release rate (%) pH 7.4 (6 h)” value is listed as 95%.
Regarding `CCCc1ccc(N2CCC(Cc3ccc(OC(=O)OCn4cc(F)c(=O)[nH]c4=O)cc3)CC2)cc1` [Example 6, (5-Fluoro-2,4-dioxo-3,4-dihydropyrimidin-1(2H)-yl)methyl (4-((1-(4-propylphenyl)piperidin-4-yl)methyl)phenyl) carbonate], the “Hydrolysis constant Kh pH 2.0” value is on record as 0.033, the “Release rate (%) pH 2.0 (6 h)” value worked out at 18%, the “Hydrolysis constant Kh pH 7.4” value is on record as 3.521 and the “Release rate (%) pH 7.4 (0.5 h)” value was 82.8%. For the same compound, the “Release rate (%) pH 7.4 (6 h)” value was 75%.
Consider `O=C(OCn1cc(F)c(=O)[nH]c1=O)Oc1ccc(C2CCN(CC(c3ccccc3)c3ccccc3)CC2)cc1` [Example 7, 4-(1-(2,2-Diphenylethyl)piperidin-4-yl)phenyl ((5-fluoro-2,4-dioxo-3,4-dihydropyrimidin-1(2H)-yl)methyl) carbonate], for which the “Hydrolysis constant Kh pH 2.0” value amounted to 0.029, the “Release rate (%) pH 2.0 (6 h)” value worked out at 16%, the “Hydrolysis constant Kh pH 7.4” value was determined as 9.924 and the “Release rate (%) pH 7.4 (0.5 h)” value was determined as 99.3%. The “Release rate (%) pH 7.4 (6 h)” value is listed as 92%.
Consider `O=C(OCn1cc(F)c(=O)[nH]c1=O)Oc1ccc(C2CCN(CC34CC5CC(CC(C5)C3)C4)CC2)cc1` [Example 8, 4-(1-(Adamantan-1-ylmethyl)piperidin-4-yl)phenyl ((5-fluoro-2,4-dioxo-3,4-dihydropyrimidin-1(2H)-yl)methyl) carbonate], for which the “Hydrolysis constant Kh pH 2.0” value turned out to be 0.041, the “Release rate (%) pH 2.0 (6 h)” value was determined as 22%, the “Hydrolysis constant Kh pH 7.4” value is listed as 11.043 and the “Release rate (%) pH 7.4 (0.5 h)” value came to 99.6%. Further, the “Release rate (%) pH 7.4 (6 h)” value came out at 99%.
The corresponding values for `O=C(OCn1cc(F)c(=O)[nH]c1=O)Oc1ccc(CC2CCN(C(c3ccccc3)c3ccccc3)CC2)cc1` [Example 9, 4-((1-Benzhydrylpiperidin-4-yl)methyl)phenyl ((5-fluoro-2,4-dioxo-3,4-dihydropyrimidin-1(2H)-yl)methyl) carbonate] are 0.027, 15%, 4.508, 89.5% and 90%.
With `CCCCC1CCN(c2ccc(CCOC(=O)n3cc(F)c(=O)[nH]c3=O)cc2)CC1` [Example 10, 4-(4-Butylpiperidin-1-yl)phenethyl 5-fluoro-2,4-dioxo-3,4-dihydropyrimidine-1(2H)-carboxylate], the “Hydrolysis constant Kh pH 2.0” value is 0.077, the “Release rate (%) pH 2.0 (6 h)” value was 37%, the “Hydrolysis constant Kh pH 7.4” value is on record as 0.256 and the “Release rate (%) pH 7.4 (0.5 h)” value was found to be 12.0%. Also, the “Release rate (%) pH 7.4 (6 h)” value is reported as 54%.
As for `CCCCN(CCCC)c1ccc(N2CCC(CCOC(=O)n3cc(F)c(=O)[nH]c3=O)CC2)cc1` [Example 11, 2-(1-(4-(Dibutylamino)phenyl)piperidin-4-yl)ethyl 5-fluoro-2,4-dioxo-3,4-dihydropyrimidine-1(2H)-carboxylate], the “Hydrolysis constant Kh pH 2.0” value is reported as 0.067, the “Release rate (%) pH 2.0 (6 h)” value is 33%, the “Hydrolysis constant Kh pH 7.4” value is 0.117 and the “Release rate (%) pH 7.4 (0.5 h)” value is 5.7%. Also, the “Release rate (%) pH 7.4 (6 h)” value was 83%.
The corresponding values for `CC[C@@]1(O)C(=O)OCc2c1cc1n(c2=O)Cc2cc3cc(OC(=O)CC4CCN(CC(c5ccccc5)c5ccccc5)CC4)ccc3nc2-1` [Example 13, (S)-4-ethyl-4-hydroxy-3,14-dioxo-3,4,12,14-tetrahydro-1H-pyrano[3′,4′:6,7]indolizino[1,2-b]quinolin-9-yl 2-(1-(2,2-diphenylethyl)piperidin-4-yl)acetate] are <0.001, 0.5%, 0.042, 2.1% and 23.3%.
In the case of `CCc1c2c(nc3ccc(OC(=O)[C@@H]4CCCN4C(c4ccccc4)c4ccccc4)cc13)-c1cc3c(c(=O)n1C2)COC(=O)[C@]3(O)CC` [Example 14, (S)-4,11-diethyl-4-hydroxy-3,14-dioxo-3,4,12,14-tetrahydro-1H-pyrano[3′,4′:6,7]indolizino[1,2-b]quinolin-9-yl benzhydrylprolinate], the “Hydrolysis constant Kh pH 2.0” value was found to be 0.015, the “Release rate (%) pH 2.0 (6 h)” value was found to be 8.4%, the “Hydrolysis constant Kh pH 7.4” value is 3.876 and the “Release rate (%) pH 7.4 (0.5 h)” value worked out at 85.6%. For the same compound, the “Release rate (%) pH 7.4 (6 h)” value was determined as 84.4%.
Regarding `CCc1c2c(nc3ccc(OC(=O)NCC4CCCN4C(c4ccccc4)c4ccccc4)cc13)-c1cc3c(c(=O)n1C2)COC(=O)[C@]3(O)CC` (stereo partly drawn) [Example 16, (S)-4,11-diethyl-4-hydroxy-3,14-dioxo-3,4,12,14-tetrahydro-1H-pyrano[3′,4′:6,7]indolizino[1,2-b]quinolin-9-yl ((1-benzhydrylpyrrolidin-2-yl)methyl)carbamate], the “Hydrolysis constant Kh pH 2.0” value is recorded as <0.001, the “Release rate (%) pH 2.0 (6 h)” value is listed as 0.4%, the “Hydrolysis constant Kh pH 7.4” value amounted to 6.540 and the “Release rate (%) pH 7.4 (0.5 h)” value stood at 96.2%. Further, the “Release rate (%) pH 7.4 (6 h)” value turned out to be 100%.
In the case of `CCCCN1CCC(c2ccc(OC(=O)Oc3ccc4nc5c(c(CC)c4c3)Cn3c-5cc4c(c3=O)COC(=O)[C@]4(O)CC)cc2)CC1` [Example 17, (S)-4-(1-butylpiperidin-4-yl)phenyl (4,11-diethyl-4-hydroxy-3,14-dioxo-3,4,12,14-tetrahydro-1H-pyrano[3′,4′:6,7]indolizino[1,2-b]quinolin-9-yl) carbonate], the “Hydrolysis constant Kh pH 2.0” value amounted to 0.095, the “Release rate (%) pH 2.0 (6 h)” value stood at 43.6%, the “Hydrolysis constant Kh pH 7.4” value is listed as 0.096 and the “Release rate (%) pH 7.4 (0.5 h)” value was 4.7%. Besides, the “Release rate (%) pH 7.4 (6 h)” value came out at 57.4%.
With `CCCCCCCN1CCC(COC(=O)Oc2ccc3nc4c(c(CC)c3c2)Cn2c-4cc3c(c2=O)COC(=O)[C@]3(O)CC)CC1` [Example 18, (S)-4,11-diethyl-4-hydroxy-3,14-dioxo-3,4,12,14-tetrahydro-1H-pyrano[3′,4′:6,7]indolizino[1,2-b]quinolin-9-yl ((1-heptylpiperidin-4-yl)methyl) carbonate], the “Hydrolysis constant Kh pH 2.0” value was <0.001, the “Release rate (%) pH 2.0 (6 h)” value is given as 0.3%, the “Hydrolysis constant Kh pH 7.4” value amounted to 0.184 and the “Release rate (%) pH 7.4 (0.5 h)” value is listed as 8.8%. The “Release rate (%) pH 7.4 (6 h)” value was determined as 11.9%.

For the origin of these results see patent US12729186B2, “Prodrugs for sustained releasing therapeutic agents and uses thereof” (LIANGJIANG MEDICINE CO., LTD., priority 2020, dated 2026).
